These results are taken from US10478389B2, “Hair-dye composition” (KAO CORPORATION, priority 2014, dated 2019).

A short description of the data set: pKa values of the azo dyes. It counts as physicochemical. Conditions: azo dye. As for the experimental part:
Thus, in the hair dye composition of the present invention having pH (25° C.) of 7.5 to 12, almost 80% or more of these azo dyes are present in an anionic state where a proton(s) is dissociated.
The compound `CSc1nsc(/N=N/c2ccc(O)c(Cl)c2)n1` [Example A-1] displayed a pKa of 6.

With `NS(=O)(=O)c1ccc2nsc(/N=N/c3ccc(O)c(Cl)c3)c2c1` [Example A-2], the pKa was found to be 6.

Compound `Cn1nccc1/N=N/c1ccc(O)c(Cl)c1` [Example A-3] showed a pKa of 7.5.
